Like-named read-outs stand apart in the source and are kept apart here.
Experiments:
[1] = target: T1, catalytic domain of phosphodiesterase 4B enzyme cloned from human brain (Homo sapiens, UniProt Q07343); assay: PDE4 inhibition assay (PDELight); assay type: biochemical; conditions: for IC50: 5 uM cAMP, read-out: PDE 4 Inhibition (IC50 in μM)
T1 construct: the catalytic domain of phosphodiesterase 4B enzyme; purchased Scottish Biomedical
Method in brief: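 Human PDE4B catalytic domain (40 mU/well) incubated with 5 uM cAMP. AMP formed was converted to ATP and measured by luciferase luminescence (PDELight). IC50 derived by nonlinear regression curve fit.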

[2] = tested on: Mouse BV-2 microglial cells; assay: BV-2 glial cell assay (TNF-α and MCP-1 by Luminex); assay type: cell-based; conditions: for EC50: Mus musculus, BV-2, LPS and IFN-γ activated, 20 hours; for inhibiting glial cell activation (TNF-α and/or MCP-1): Table 3
Procedure: Mouse BV-2 microglial cells were seeded on 96-well plates at a concentration of 3×10^4 cells/well. Cells were activated with 100 ng/mL LPS and IFN-γ (100 ng/mL) in the presence or absence of test compounds (0-30 uM). Following incubation for 20 hours, cells were spun down and supernatant collected. The supernatant was analyzed via Luminex for the presence of TNF-α and MCP-1.

[3] = target: T2, recombinant full length human JNK3 enzyme (Homo sapiens, UniProt P53779); assay: JNK 3 inhibition assay (ATP depletion, luciferase); assay type: biochemical; conditions: for IC50: 10 uM ATP, ATF2 substrate; for JNK-3 inhibition (in words): see Table 2
T2 construct: recombinant full length human JNK2 or JNK3 enzyme; purchased Upstate; host or cells: Sf21 cells
T2 sequence (P53779 whole entry): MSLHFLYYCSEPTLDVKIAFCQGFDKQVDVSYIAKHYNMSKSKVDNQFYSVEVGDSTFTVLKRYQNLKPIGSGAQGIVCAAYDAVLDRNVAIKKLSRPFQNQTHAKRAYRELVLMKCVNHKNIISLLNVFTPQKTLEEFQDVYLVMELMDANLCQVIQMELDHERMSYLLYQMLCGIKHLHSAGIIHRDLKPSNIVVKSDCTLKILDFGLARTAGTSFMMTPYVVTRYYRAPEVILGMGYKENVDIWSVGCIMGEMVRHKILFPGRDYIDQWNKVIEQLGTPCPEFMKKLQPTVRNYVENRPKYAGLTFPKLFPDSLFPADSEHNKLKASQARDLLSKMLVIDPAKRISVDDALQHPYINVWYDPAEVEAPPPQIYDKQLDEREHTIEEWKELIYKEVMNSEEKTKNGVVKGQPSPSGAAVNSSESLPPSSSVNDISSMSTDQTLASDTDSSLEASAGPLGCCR
Procedure: In a 96-well plate, recombinant full length human JNK2 or JNK3 enzyme (40 ng) expressed in Sf21 cells (Upstate) was incubated with the substrate ATF2 (3 uM) for 1 hour in the presence of 10 uM ATP. […] The ATP levels were quantified using luciferase with luminescence read on a Victor Light 1420 luminometer. IC50 calculations were plotted using a nonlinear regression curve fit.

[4] = tested on: Male Wistar rats; assay: Morris Maze test; assay type: in vivo, rat
Excerpt: The potential cognitive enhancing properties of the exemplary compound, AV1137, were examined in the Morris Maze test in the rat.
Male Wistar rats were given 4 training sessions over 4 consecutive days. The training session consisted of 4 consecutive trials in the Morris Maze, each separated by 60 seconds. For each trial, the animal was placed in the maze at one of two starting points equidistant from the escape platform and allowed to find the escape platform. The animal was left on the escape platform for 60 seconds before starting a new trial. […] During the 4 trials the animals started the maze twice from each starting point in a randomly determined order per animal.
The trials were video-recorded and the behaviour of animals was analysed using a video-tracking system (Panlab: SMART). The measures taken were the escape latency, the path length and the swim speed at each trial. Scopolamine (0.5 mg/kg i.p.), administered 30 minutes before each session, induces amnesia as indicated by the failure of scopolamine-treated rats to reduce their escape latencies from trial to trial. 12 rats were studied per group. […]
AV1137 was evaluated at 2 and 5 mg/kg, administered twice daily. […]
AV1137 was also administered at the end of each acquisition day (i.e. 6-8 hours after the first administration). […] Data were analyzed by comparing treated groups with appropriate control using unpaired Student's t tests.

[5] = tested on: rat chronic constriction injury (CCI) model of neuropathic pain; assay: Rat chronic constriction injury (CCI) model of neuropathic pain; assay type: in vivo; conditions: for IP CCI efficacy (Change in grams): dose not given, 50% paw withdrawal threshold, von Frey
[6] = tested on: 6-OHDA lesioned rats; assay: 6-OHDA (Parkinson's) model, apomorphine induced rotations; assay type: in vivo, rat; conditions: 50 mg/kg PO once daily, after 7 days; control 444, baseline 315
Procedure: AV1173 was evaluated in a 6-OHDA lesioned rats, a standard rat model of Parkinson's disease. (See, e.g., Ungerstedt, U. “6-hydroxydopamine induced degeneration of monoamine neurons.” Eur. J. Pharm. 5: 107-110, 1968; Garvey P M, et al., “Injection of biologically relevant active substances into the brain.” Methods in Neurosciences. 21: 214-234, 1994).
Pre-lesioned rats were purchased from a vendor (Taconic) following stereotaxic injection into the brain of the neurotoxin 6-hydroxydopamine (6-OHDA), which leads to neuronal cell loss in those brain regions affected in PD (in particular the substantia nigra). Briefly, anesthetized rats were injected with […] of 6-OHDA using stereotaxic coordinates to locate the needle within the nigrostatial pathway. A 2 ug/uL solution of 6-OHDA was infused at a rate of 1 ul/min for four minutes. […] On […] post-injection, rats began a once-daily oral regimen of AV1173 (50 mg/kg PO). Rats were assessed for rotational behavior following 0.5 mg/kg apomorphine challenge, one week from the initiation of dosing (Day 17 post-6-OHDA injection).

[7] = read-out: MCP-1 BV-2 (EC50 in μM)
[8] = read-out: TNF-a BV-2 (EC50 in μM)

T1 sequence (Q07343 330-659 limits assumed): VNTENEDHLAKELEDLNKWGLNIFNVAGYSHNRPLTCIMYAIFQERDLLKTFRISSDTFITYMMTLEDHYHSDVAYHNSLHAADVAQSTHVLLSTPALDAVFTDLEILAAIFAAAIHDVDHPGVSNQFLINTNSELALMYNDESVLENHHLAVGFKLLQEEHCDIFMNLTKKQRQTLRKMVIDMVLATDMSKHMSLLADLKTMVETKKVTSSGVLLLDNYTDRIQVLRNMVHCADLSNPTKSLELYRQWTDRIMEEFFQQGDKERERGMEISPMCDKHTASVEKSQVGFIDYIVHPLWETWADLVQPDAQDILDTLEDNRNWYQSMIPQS

| SMILES | PDE-4 inhibition (in words) [1] | IC50 [1] | EC50 [2, 7] | EC50 [2, 8] | inhibiting glial cell activation (TNF-α and/or MCP-1) [2] | IC50 [3] | escape latencies ([4]; normal rats (no scopolamine), 5 mg/kg i.p., relative to saline controls, FIG. 5) | escape latency and distance swum ([4]; scopolamine-induced deficit, 2 and 5 mg/kg i.p. twice daily, relative to scopolamine treated controls, FIG. 4) | IP CCI efficacy (Change in grams) [5] | PO CCI efficacy (Change in grams) ([5]; 75 mg/kg) | JNK-3 inhibition (in words) [3] | average number of apomorphine induced rotations in 30 minutes [6] | PO CCI efficacy (Change in grams) ([5]; 30 mg/kg) | reversal of allodynia ([5]; oral dosing, multi-day, 24 hr time-points, FIG. 6) |
| --- | --- | --- | --- | --- | --- | --- | --- | --- | --- | --- | --- | --- | --- | --- |
| CC(C)Nc1nccc(-c2c(C(C)C)nn3ccccc23)n1 [AV1137, N-isopropyl-4-(2-isopropylpyrazolo[1,5-a]pyridin-3-yl)pyrimidin-2-amine] | particularly effective | 4.3 µM | 1.1 µM | 1.2 µM | Particularly effective | 2.6 µM | trend for reduced escape latencies | trend was seen for decreased escape latency and distance swum | 3.26 grams | 0.94 (75 mg/kg) grams | – | – | – | – |
| CC(C)Nc1nccc(-c2cnn3ccccc23)n1 [AV1164, N-isopropyl-4-(pyrazolo[1,5-a]pyridin-3-yl)pyrimidin-2-amine] | particularly effective | 5.9 µM | 4.9 µM | 0.4 µM | Particularly effective | 0.3 µM | – | – | 1.56 grams | – | particularly effective | – | – | – |
| c1ccn2ncc(-c3ccnc(NC4CCCC4)n3)c2c1 [AV1165, N-cyclopentyl-4-(pyrazolo[1,5-a]pyridin-3-yl)pyrimidin-2-amine] | – | 14 µM | 0.6 µM | 0.2 µM | Particularly effective | 0.2 µM | – | – | 0.44 grams | – | particularly effective | – | – | – |
| CC(C)Nc1nccc(-c2c(C3CC3)nn3ccccc23)n1 [AV1173, 4-(2-cyclopropylpyrazolo[1,5-a]pyridin-3-yl)-N-isopropylpyrimidin-2-amine] | particularly effective | 1.1 µM | 0.7 µM | 1.4 µM | Particularly effective | 1.2 µM | – | – | 2.5 grams | – | particularly effective | 354 | 1.6 (30 mg/kg) grams | capable of reversing allodynia and sustaining the efficacy overnight |

Source: patent US20110039873A1, “SUBSTITUTED PYRAZOLO[1,5-a] PYRIDINE COMPOUNDS HAVING MULTI-TARGET ACTIVITY” (priority 2009, published 2011)
